Results reported in patent US6001853A, “Hydroxylamine compositions for the prevention or retardation of cataracts” (priority 1998, dated 1999).
Where two headings read alike, the source gives them in different places.

How the values were obtained:
experimental cataracts = conditions: cited from earlier work
lens proteins = conditions: in vitro; cited from earlier work
[1] = tested on: cataracts in x-ray irradiated rats; conditions: cited from earlier work
rat lenses [2] = experiment: Rubidium-86 accumulation by cultured rat lenses (H2O2 stress); format: cell-based, Sprague-Dawley rat; conditions: for prevention of decrement in Rb-86 accumulation associated with H2O2 exposure: 0.25 mM H2O2, agent added at beginning of assay; for effect on Rb-86 accumulation of control lenses: added to medium of control lenses at beginning of assay, no H2O2
Method: (§1) Such assays are accepted as an indication of the in vivo effect of a drug in retarding the development of cataracts.
(§2) The techniques described in references 10 and 11 were used in this assay. Rat lenses used in these studies were obtained from Sprague-Dawley male rats. The lenses were incubated in 24-well clusters in modified TC-199 medium (prepared as described in Zigler and Hess, Exp. Eye Res. 41:67, 1985) and placed in a 37° C. incubator with a 95% air/5% CO2 humidified atmosphere. The lenses were incubated in about 2.0 ml of culture medium, which was adjusted to about 300 milliosmoles. The assays were usually of 22 hours duration, and tracer levels of ^86 Rb or tritiated choline were added at 18 hours so that the tracer was present during the last four hours of the assay.
Two potential anti-cataract agents were tested in this experiment: E-64 (a protease inhibitor) and pantetheine (a putative phase separation inhibitor) were added to the culture medium at the beginning of the assay.
(§3) The experiment was performed essentially as described for Example 2, except that TEMPOL-H was added at 3 or 4 mM or was added at 3 mM together with MPG at either 0.5 or 1 mM.

[3] = Systemic/ocular delivery of MPG by osmotic pump, detection in the eye; format: in vivo, Sprague Dawley albino rats; conditions: subcutaneous, intraperitoneal and ocular routes; 2 ml of 100 mM over 7 or 14 days
Method: (§4) A 2 ml volume of 100 mM TEMPOL-H was provided in an ALZET osmotic pump, available from Alza Corporation of Palo Alto, Calif. The pump was programmed to deliver the 2 ml dose continuously (down an osmotic gradient) over a period of either 7 or 14 days.
The reducing agent MPG was also delivered to the subjects by subcutaneous, intraperitoneal and ocular routes, as described in Example 7, through an implanted osmotic pump. A 2 ml volume of 100 mM MPG was provided in the pump and delivered over a period of 7 days or 14 days.

rat lenses [4] = experiment: Tritiated choline accumulation by cultured rat lenses (H2O2 stress); format: cell-based, Sprague-Dawley rat; conditions: for reduction of the H2O2-induced decrement of tritiated choline concentration: 0.25 mM H2O2, MPG 1 mM, TEMPOL-H 5 mM
Method: as §1, §2
(§5) Rat lenses were cultured as described in reference 11 and Example 1. H2 O2 was added to experimental cultures to a concentration of 0.25 mM. Carnosine at 1 mM, MPG at 1 mM, or TEMPOL-H at 5 mM was added to some of the treated lenses at the beginning of the culture assay.
as §3

cells = conditions: reported by Mitchell and colleagues; cited from earlier work
rat lenses [5] = format: cell-based; conditions: 1.0 mM H2O2 plus 4 mM TEMPOL-H, 24 hours
Method: Lenses were cultured as in the above examples.

[6] = Systemic delivery of TEMPOL-H by osmotic pump, plasma and eye concentrations; format: in vivo, Sprague Dawley albino rats; conditions: subcutaneous osmotic pump, 2 ml of 100 mM over 7 or 14 days
Method: as §4
In the rats who received subcutaneous delivery of the hydroxylamine, plasma TEMPOL-H concentrations of 0.25 μM were observed.

lens = experiment: Lens penetration and redox state by EPR of lens homogenate; format: in vitro ADME, rat
Excerpt: TEMPOL-H is the reduced form of the nitroxide TEMPOL, which is a stable free radical detectable by electron paramagnetic resonance (EPR) spectroscopy, as in reference 12. TEMPOL-H can be readily converted to TEMPOL by oxidation with ferricyanide, and then can be quantitated by EPR spectroscopy. This provides a ready means of determining whether TEMPOL-H is present in experimental lenses and whether it is in the oxidized or reduced state. […] TEMPOL-H can in turn be oxidized to the nitroxide by dehydrogenases and activated oxygen species, such as singlet oxygen.
as §5
Following lens incubation, lenses were rinsed, then homogenized in buffer and aliquots of the homogenate analyzed by EPR. […] Only following treatment of the lens extract with ferricyanide was the nitroxide detected.

CC(=O)Oc1ccccc1C(=O)O [Aspirin]
delay of experimental cataracts (experimental cataracts): shown to delay experimental cataracts

O=C(O)COc1nn(Cc2ccccc2)c2ccccc12 [Bendazac]
protection of lens proteins (lens proteins): found to protect lens proteins in vitro | delay of onset of cataracts [1]: delay the onset of cataracts in x-ray irradiated rats

CC(C)CC(NC(=O)C1OC1C(=O)O)C(=O)NCCCCNC(=N)N (stereo not shown) [E-64]
prevention of decrement in Rb-86 accumulation associated with H2O2 exposure (rat lenses [2]): neither prevented the decrement in accumulation | effect on Rb-86 accumulation of control lenses (rat lenses [2]): small negative effect on Rb-86 accumulation

OO [H2 O2, hydrogen peroxide]
Rb-86 accumulation (internal concentration relative to concentration in the medium) (rat lenses [2]; H2O2 bolus 0.25 mM, normal control lenses more than 7-fold): 5 fold

CC(S)C(=O)NCC(=O)O (stereo not shown) [MPG, N-(2-mercaptopropionyl) glycine]
detection of MPG in the eye [3]: detected in the eye | reduction of the H2O2-induced decrement of tritiated choline concentration (rat lenses [4]): significant reduction in the decrement of tritiated choline concentration

CC1(C)CC(O)CC(C)(C)N1[O] [TEMPOL, 4-hydroxy-2,2,6,6-tetramethylpiperidin-1-yloxy]
protection of cells from oxidative damage (cells): protects cells from oxidative damage

CC1(C)CC(O)CC(C)(C)N1O [TEMPOL-H]
inhibition of opacification of cultured lenses (rat lenses [5]): clearly and consistently was found to inhibit opacification of the cultured lenses | concentration ([6]; read-out: concentration in the eye): 20 nM | concentration ([6]; read-out: plasma TEMPOL-H concentration): 250 nM | reduction of the H2O2-induced decrement of tritiated choline concentration (rat lenses [4]): significant reduction in the decrement of tritiated choline concentration | effect on 3H-choline accumulation in lenses exposed to H2O2, dose response / combination (rat lenses [4]; TEMPOL-H 3 or 4 mM, or 3 mM with MPG 0.5 or 1 mM (FIG. 5)): dose response effect | protection of cells from oxidative damage (cells): affords no such protection | effect on Rb-86 accumulation in lenses exposed to H2O2, dose response / combination (rat lenses [2]; TEMPOL-H 3 or 4 mM, or 3 mM with MPG 0.5 or 1 mM (FIG. 6)): dose response effect | penetration of the lens from the culture medium (lens; EPR after lens incubation, TEMPOL-H 5 mM): does penetrate the lens from the culture medium | redox state within the lens (lens; nitroxide detected only following ferricyanide treatment of lens extract): the highly reducing environment within the lens keeps the compound in the reduced state

CC(=O)Nc1ccc(O)cc1 [acetaminophen]
delay of experimental cataracts (experimental cataracts): shown to delay experimental cataracts

CC(C)Cc1ccc(C(C)C(=O)O)cc1 (stereo not shown) [ibuprofen]
delay of experimental cataracts (experimental cataracts): shown to delay experimental cataracts

CC(C)(CO)[C@@H](O)C(=O)NCCC(=O)NCCS [pantetheine]
prevention of decrement in Rb-86 accumulation associated with H2O2 exposure (rat lenses [2]): neither prevented the decrement in accumulation | effect on Rb-86 accumulation of control lenses (rat lenses [2]): small negative effect on Rb-86 accumulation
